# Laboratory results: patent publication US12324802B2, “Modulators of cystic fibrosis transmembrane conductance regulator” (Vertex Pharmaceuticals Incorporated, priority 2020, dated 2025)
# pEC50: −log10 of the molar value.
# Molecular target: T1, CFTR (F508del/MF-HBE cells) (Homo sapiens, UniProt P13569, DEL508-508)
# T1 construct: human bronchial epithelial (HBE) cells derived from CF subjects heterozygous for F508del and a minimal function CFTR mutation; endogenous in cells; host or cells: primary human bronchial epithelial cells from CF subjects (F508del/MF genotype)
# T1 sequence (P13569 with tags, fused parts or gaps DEL508-508): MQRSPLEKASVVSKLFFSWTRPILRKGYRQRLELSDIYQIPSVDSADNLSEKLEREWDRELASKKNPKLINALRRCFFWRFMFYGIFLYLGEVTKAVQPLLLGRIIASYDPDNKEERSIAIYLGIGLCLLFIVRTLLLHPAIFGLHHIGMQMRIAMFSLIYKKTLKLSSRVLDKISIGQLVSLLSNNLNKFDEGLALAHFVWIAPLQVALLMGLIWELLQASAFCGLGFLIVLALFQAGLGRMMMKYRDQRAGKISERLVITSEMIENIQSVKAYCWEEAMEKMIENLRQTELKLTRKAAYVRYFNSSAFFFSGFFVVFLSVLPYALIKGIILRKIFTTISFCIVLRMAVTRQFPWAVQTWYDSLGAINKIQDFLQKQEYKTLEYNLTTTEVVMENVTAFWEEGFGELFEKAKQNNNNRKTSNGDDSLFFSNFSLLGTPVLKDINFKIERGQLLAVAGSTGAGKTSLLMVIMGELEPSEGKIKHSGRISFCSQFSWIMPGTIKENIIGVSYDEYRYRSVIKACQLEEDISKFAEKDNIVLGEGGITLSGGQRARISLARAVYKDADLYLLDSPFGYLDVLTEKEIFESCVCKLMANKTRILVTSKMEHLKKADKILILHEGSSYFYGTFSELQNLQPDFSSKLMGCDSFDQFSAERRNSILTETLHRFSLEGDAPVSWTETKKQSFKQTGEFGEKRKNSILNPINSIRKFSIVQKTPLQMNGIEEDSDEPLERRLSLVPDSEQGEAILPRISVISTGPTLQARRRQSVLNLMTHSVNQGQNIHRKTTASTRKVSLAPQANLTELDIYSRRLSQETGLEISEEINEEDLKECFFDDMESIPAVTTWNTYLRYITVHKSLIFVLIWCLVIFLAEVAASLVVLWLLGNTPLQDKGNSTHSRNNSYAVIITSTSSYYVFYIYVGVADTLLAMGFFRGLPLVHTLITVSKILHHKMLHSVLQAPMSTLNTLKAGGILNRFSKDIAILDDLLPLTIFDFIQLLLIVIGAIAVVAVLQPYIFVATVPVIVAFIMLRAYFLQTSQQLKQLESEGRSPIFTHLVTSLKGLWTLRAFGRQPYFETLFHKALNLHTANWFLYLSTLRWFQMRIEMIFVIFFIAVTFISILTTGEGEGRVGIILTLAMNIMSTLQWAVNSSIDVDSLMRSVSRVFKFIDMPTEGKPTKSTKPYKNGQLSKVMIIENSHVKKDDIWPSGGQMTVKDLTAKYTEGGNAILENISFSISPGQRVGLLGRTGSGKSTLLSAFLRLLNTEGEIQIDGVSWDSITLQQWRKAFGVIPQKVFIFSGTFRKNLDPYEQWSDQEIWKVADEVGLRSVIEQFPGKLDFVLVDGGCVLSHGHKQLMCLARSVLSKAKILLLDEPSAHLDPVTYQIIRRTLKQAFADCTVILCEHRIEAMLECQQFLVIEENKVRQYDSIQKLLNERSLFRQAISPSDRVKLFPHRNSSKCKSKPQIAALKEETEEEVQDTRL
# Test: Ussing chamber assay of CFTR-mediated short-circuit currents (identification of potentiator compounds)
# Assay type: cell-based
# Conditions: CFTR-mediated ISC in F508del/MF-HBE cells; incubated 18-24 hours at 37° C. with 10 μM (14S)-8-[3-(2-{dispiro[2.0.2.1]heptan-7-yl}ethoxy)-1H-pyrazol-1-yl]-...-2,2,4-trione, 20% human serum
# Protocol: Ussing Chamber Assay of CFTR-Mediated Short-Circuit Currents
# Ussing chamber experiments were performed using human bronchial epithelial (HBE) cells derived from CF subjects heterozygous for F508del and a minimal function CFTR mutation (F508del/MF-HBE) and cultured as previously described (Neuberger T, Burton B, Clark H, Van Goor F Methods Mol Biol 2011:741:39-54). After four days the apical media was removed, and the cells were grown at an air liquid interface for >14 days prior to use.
# To isolate the CFTR-mediated short-circuit (ISC) current, F508del/MF-HBE grown on Costar® Snapwell™ cell culture inserts were mounted in an Ussing chamber and the transepithelial ISC was measured under voltage-clamp recording conditions (Vhold=0 mV) at 37° C. The basolateral solution contained (in mM) 145 NaCl, 0.83 K2HPO4, 3.3 KH2PO4, 1.2 MgCl2, 1.2 CaCl2), 10 Glucose, 10 HEPES (pH adjusted to 7.4 with NaOH) and the apical solution contained (in mM) 145 NaGluconate, 1.2 MgCl2, 1.2 CaCl2), 10 glucose, 10 HEPES (pH adjusted to 7.4 with NaOH) and 30 μM amiloride to block the epithelial sodium channel. Forskolin (20 μM) was added to the apical surface to activate CFTR, followed by apical addition of a CFTR inhibitor cocktail consisting of BPO, GlyH-101 and CFTR inhibitor 172 (each at 20 μM final assay concentration) to specifically isolate CFTR currents. The CFTR-mediated ISC (μA/cm^2) for each condition was determined from the peak forskolin response to the steady-state current following inhibition.
# Identification of Potentiator Compounds
# The activity of the CFTR potentiator compounds on the CFTR-mediated ISC was determined in Ussing chamber studies as described above. The F508del/MF-HBE cell cultures were incubated with the potentiator compounds at a range of concentrations in combination with 10 μM (14S)-8-[3-(2-{dispiro[2.0.2.1]heptan-7-yl}ethoxy)-1H-pyrazol-1-yl]-12,12-dimethyl-2λ^6-thia-3,9,11,18,23-pentaazatetracyclo [17.3.1.111,14.05,10]tetracosa-1(22),5,7,9,19(23),20-hexaene-2,2,4-trione for 18-24 hours at 37° C. and in the presence of 20% human serum. The concentration of potentiator compounds and (14S)-8-[3-(2-{dispiro[2.0.2.1]heptan-7-yl}ethoxy)-1H-pyrazol-1-yl]-12,12-dimethyl-2λ^6-thia-3,9,11,18,23-pentaazatetracyclo [17.3.1.111,14.05,10]tetracosa-1(22),5,7,9,19(23),20-hexaene-2,2,4-trione used during the 18-24 hours incubations was kept constant throughout the Ussing chamber measurement of the CFTR-mediated ISC to ensure compounds were present throughout the entire experiment. The efficacy and potency of the putative F508del potentiators was compared to that of the known Vertex potentiator, ivacaftor (N-[2,4-bis(1,1-dimethylethyl)-5-hydroxyphenyl]-1,4-dihydro-4-oxoquinoline-3-carboxamide).
row,Compound,pEC50
1,"CN1CCC=CCCC(=O)C2=NN=C(O2)c2nc1c(C(F)(F)F)cc2N (mixture of isomers) [Compound 75, 17-amino-13-methyl-15-(trifluoromethyl)-19-oxa-3,4,13,18-tetrazatricyclo[12.3.1.12,5]nonadeca-1(18),2,4,9,14,16-hexaen-6-one]",> 6.30
2,"Nc1cc(-c2ccccc2)c2nc1-c1nnc(o1)C(O)(C(F)(F)F)CCCCC[C@@H]1CCCN21 (mixture of isomers) [Compound 118, (12R)-20-amino-18-phenyl-6-(trifluoromethyl)-22-oxa-3,4,16,21-tetraazatetracyclo[15.3.1.12,5.012,16]docosa-1(21),2,4,17,19-pentaen-6-ol]",< 6.00
3,"Nc1cc(C2CCOCC2)c2nc1-c1nnc(o1)C(O)(C(F)(F)F)CCCCC[C@@H]1CCCN21 (mixture of isomers) [Compound 123, (12R)-20-amino-18-(oxan-4-yl)-6-(trifluoromethyl)-22-oxa-3,4,16,21-tetraazatetracyclo[15.3.1.12,5.012,16]docosa-1(21),2,4,17,19-pentaen-6-ol]",< 6.00
4,"Nc1cc(-c2ccncc2)c2nc1-c1nnc(o1)C(O)(C(F)(F)F)CCCCC[C@@H]1CCCN21 (mixture of isomers) [Compound 125, (12R)-20-amino-18-(pyridin-4-yl)-6-(trifluoromethyl)-22-oxa-3,4,16,21-tetraazatetracyclo[15.3.1.12,5.012,16]docosa-1(21),2,4,17,19-pentaen-6-ol]",< 6.00
5,"Nc1cc(C2CCOC2)c2nc1-c1nnc(o1)C(O)(C(F)(F)F)CCCCC[C@@H]1CCCN21 (mixture of isomers) [Compound 126, (12R)-20-amino-18-(oxolan-3-yl)-6-(trifluoromethyl)-22-oxa-3,4,16,21-tetraazatetracyclo[15.3.1.12,5.012,16]docosa-1(21),2,4,17,19-pentaen-6-ol]",< 6.00

# Second part, the molecule after the results:
row,pEC50,Compound
1,> 6.30,"Cn1cc(-c2cc(N)c3nc2N2CCC[C@H]2CCCCCC(O)(C(F)(F)F)C2=NN=C3O2)cn1 (mixture of isomers) [Compound 127, (12R)-20-amino-18-(1-methyl-1H-pyrazol-4-yl)-6-(trifluoromethyl)-22-oxa-3,4,16,21-tetraazatetracyclo[15.3.1.12,5.012,16]docosa-1(21),2,4,17,19-pentaen-6-ol]"
2,> 6.30,"Nc1cc(-c2cn[nH]c2)c2nc1-c1nnc(o1)C(O)(C(F)(F)F)CCCCC[C@@H]1CCCN21 (mixture of isomers) [Compound 128, (12R)-20-amino-18-(1H-pyrazol-4-yl)-6-(trifluoromethyl)-22-oxa-3,4,16,21-tetraazatetracyclo[15.3.1.12,5.012,16]docosa-1(21),2,4,17,19-pentaen-6-ol]"
3,> 6.30,"Nc1cc(C2CCCCC2)c2nc1-c1nnc(o1)C(O)(C(F)(F)F)CCCCC[C@@H]1CCCN21 (mixture of isomers) [Compound 129, (12R)-20-amino-18-cyclohexyl-6-(trifluoromethyl)-22-oxa-3,4,16,21-tetraazatetracyclo[15.3.1.12,5.012,16]docosa-1(21),2,4,17,19-pentaen-6-ol]"
4,< 6.00,"Nc1cc(-c2ccccn2)c2nc1-c1nnc(o1)C(O)(C(F)(F)F)CCCCC[C@@H]1CCCN21 (mixture of isomers) [Compound 132, (12R)-20-amino-18-(pyridin-2-yl)-6-(trifluoromethyl)-22-oxa-3,4,16,21-tetraazatetracyclo[15.3.1.12,5.012,16]docosa-1(21),2,4,17,19-pentaen-6-ol]"
5,> 6.30,"Nc1cc(S(=O)(=O)c2ccccc2)c2nc1-c1nnc(o1)C(O)(C(F)(F)F)CCCCC[C@@H]1CCCN21 (mixture of isomers) [Compound 133, (12R)-20-amino-18-(benzenesulfonyl)-6-(trifluoromethyl)-22-oxa-3,4,16,21-tetraazatetracyclo[15.3.1.12,5.012,16]docosa-1(20),2,4,17(21),18-pentaen-6-ol]"
